The source of these data is patent US8236984B2, “Compound and use thereof in the treatment of amyloidosis” (Pentraxin Therapeutics Ltd., priority 2007, dated 2012).

“Also recorded” adds a separate entry of the source.

Assay [1] addresses L55P variant transthyretin (Homo sapiens, UniProt P02766, L75P). Briefly: Differential scanning calorimetry of transthyretin with ligand. The note with it: five fold molar excess of ligand. Type of assay: binding. In general terms: In DSC, transitions show as peaks or steps in heat flow.
A further assay has as its target wild type transthyretin (Homo sapiens, UniProt P02766). The assay is described as follows: Mass spectrometric analysis of subunit exchange. The format is biochemical. Also noted: made in house. The note with it: 4.4 μM labelled proteins, 2-fold molar excess of ligand, room temperature and 4° C. As to the method:
(§1) 4.2 Mass spectrometric analysis of subunit exchange. Recombinant wild type, L55P and V30M transthyretin variants were biosynthetically labelled with isotopes [^15N] and [^15N, ^13C] as previously described (Keetch C A et al, 2005). Immediately prior to analysis, proteins were buffer exchanged into 20 mM ammonium acetate, pH 7.0 using Micro Biospin columns (Bio-Rad, UK). The subunit composition of transthyretin was monitored as a function of time by incubating an equimolar solution (4.4 μM) of [^15N] and [^15N, ^13C] labelled proteins in the presence of 2-fold molar excess of 4ajm15 in DMSO or 2.5% DMSO alone as a control. Each experiment was carried out in triplicate at room temperature and at 4° C. as well, since it is known that subunit exchange is accelerated at low temperatures. Nanoflow ESMS was performed on a QToF2 instrument (Waters/Micromass UK, Ltd.) modified for high mass operation (Sobott et al, (2002)) and calibrated externally using caesium iodide (100 mg/ml). Each solution, 1.5 μl, was electrosprayed from gold coated borosilicate capillaries prepared in-house as described (Nettleton E J, et al, 1998). […]

In a further assay the target is T1, transthyretin Tyr77 (Homo sapiens, UniProt P02766, S97Y).
T1 construct: The displacement of T4 from transthyretin in whole serum; from tissue; host or cells: whole serum of heterozygous carriers
The assay is described as follows: Displacement of 125I-T4 from transthyretin in whole serum. Type of assay: binding. The note with it: whole serum of heterozygous subjects, mean. From the text:
(§2) 3.2.3.2. Quantitative studies in serum. […] The immunoprecipitate was recovered by centrifugation, washed twice with 0.1 M Tris, 0.1 M NaCl, pH 8.0 and counted.
For orientation: In a radioligand displacement assay an active substance lowers the binding of a labelled ligand.

The target in a further assay is transthyretin Ala60 (Homo sapiens, UniProt P02766). The description is as above. The format is binding. The note with it: read-out: IC50 for displacement of T4 from transthyretin Ala60 in serum; whole serum of heterozygous subjects, mean.
Text: as §2

For another assay, the target named is transthyretin Met30 (Homo sapiens, UniProt P02766). The assay is described as above. The format is binding. The note with it: read-out: IC50 for displacement of T4 from transthyretin Met30 in serum; whole serum of heterozygous subjects, mean.
Text: as §2

In a further assay the target is transthyretin Ile122 (Homo sapiens, UniProt P02766). Described as above. The note with it: read-out: IC50 for displacement of T4 from transthyretin Ile122 in serum; whole serum of heterozygous subjects, mean. Type of assay: binding.
Text: as §2

In another assay the target is T2, transthyretin (Homo sapiens, UniProt P02766).
T2 construct: Native tetrameric transthyretin was purified from fractionated human plasma; from tissue; host or cells: human plasma
Briefly: Stopped flow analysis of the kinetics of binding by transthyretin. The note with it: 2 μM protein, 10 μM ligand, PBS pH 7.4, 5% DMSO, 20° C. The procedure:
3.2.2 Stopped flow analysis of the kinetics of 4ajm15 binding by transthyretin. The kinetics of transthyretin binding to 4ajm15 were evaluated with a Bio-Logic SFM-300 stopped flow device coupled to a fluorescence detection system (Claix, France) using a cell path length of 1.5 mm. The excitation wavelength was 280 nm and emission was measured at wavelengths greater than 320 nm using a cut off filter. The experiments were performed at 20° C. in PBS pH 7.4 containing 5% DMSO with a final protein concentration of 2 μM in the presence of 10 μM 4ajm15. The kinetic traces fit well to a single-exponential function with a time constant of 2.17 s (±0.02 s). Transthyretin thus binds 4ajm15 very rapidly at physiological pH with the plateau of the quenching reaction being reached after only ˜11 sec.

A further assay deals with T3, V30M transthyretin (Homo sapiens, UniProt P02766, V50M).
T3 construct: made in house
The assay is described as follows: Mass spectrometric analysis of subunit exchange. Type of assay: biochemical. The note with it: 2-fold molar excess of ligand, data not shown. The procedure: as §1

Assay [2] addresses T4, thyroxine binding globulin (TBG) (Homo sapiens, UniProt P05543).
T4 construct: from tissue; host or cells: whole serum
T4 sequence (P05543 21-415): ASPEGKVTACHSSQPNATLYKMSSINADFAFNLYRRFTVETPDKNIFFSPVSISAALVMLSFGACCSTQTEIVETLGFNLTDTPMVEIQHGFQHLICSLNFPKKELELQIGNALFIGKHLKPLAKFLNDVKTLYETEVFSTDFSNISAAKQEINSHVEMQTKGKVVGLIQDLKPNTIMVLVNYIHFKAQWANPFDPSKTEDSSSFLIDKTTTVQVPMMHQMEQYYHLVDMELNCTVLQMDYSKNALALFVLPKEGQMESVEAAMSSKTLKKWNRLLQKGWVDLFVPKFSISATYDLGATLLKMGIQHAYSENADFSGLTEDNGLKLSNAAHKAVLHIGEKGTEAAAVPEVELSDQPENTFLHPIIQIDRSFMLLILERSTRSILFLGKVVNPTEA
The assay is described as follows: T4 displacement from T4 binding proteins in whole serum (agarose gel electrophoresis, densitometry). The note with it: increasing concentrations of ligand. The text has this: 3.2.3.3. […] After the electrophoresis, the proteins were transferred by capillary diffusion to a nitrocellulose membrane and subjected to phosphor imaging (Typhoon 8600; […], Amersham Biosciences). The two known T4-binding proteins, transthyretin and thyroxine binding globulin (TBG), were distinctly visualized, while albumin binding appears as a radioactive smear between them.

For the compound `O=C(O)c1ccccc1Nc1cc(Cl)c(OCCCCCCCOc2c(Cl)cc(Nc3ccccc3C(=O)O)cc2Cl)c(Cl)c1` [mds84, 2,2′-(4,4′-(heptane-1,7-diylbis(oxy))bis(3,5-dichloro-4,1-phenylene))bis(azanediyl)dibenzoic acid], in assay [1], the “Tm of L55P variant transthyretin with the ligand” value was 98.3 °C and the “increase in Tm of L55P variant transthyretin” value was 5.9 °C.

Consider `O=C(O)c1ccccc1Nc1cc(Cl)c(OCCCCCCCCCCCOc2c(Cl)cc(Nc3ccccc3C(=O)O)cc2Cl)c(Cl)c1` [4ajm15, 2,2′-(4,4′-(undecane-1,11-diylbis(oxy))bis(3,5-dichloro-4,1-phenylene))bis(azanediyl)dibenzoic acid], for which, at wild type transthyretin, the “subunit exchange of wild type transthyretin” value is listed as “prevents any subunit exchange; also recorded: almost complete absence of exchange after 7 days”. The IC50 on transthyretin Tyr77 amounted to 26.2 µM; on transthyretin Ala60 it was 26.5 µM; on transthyretin Met30 it was 61.6 µM; on transthyretin Ile122 it was 29.4 µM. For the same compound, the “time constant of binding (single-exponential fit)” value on transthyretin is listed as 2.17 s. For the same compound, the “time to plateau of the quenching reaction” value on transthyretin was around 11 s. In addition, at V30M transthyretin, the “subunit exchange of V30M transthyretin” value is recorded as “Exactly the same effect”. In addition, the “effect on binding of T4 by TBG” value in [2] is “did not affect”.

The IC50 is the concentration needed to halve the response being measured.
